Patent US20220324865A1 (Bayer Aktiengesellschaft, priority 2018, published 2022)

The compounds below were run against T1, human EP3 receptor (Homo sapiens, UniProt P43115) (assay: Cellular in vitro assay for determining EP3 receptor activity (human EP3 cell line, sulprostone-stimulated calcium luminescence)). Settings: CHO cells expressing human EP3 and mitochondrial Clytin; antagonist mode, sulprostone at EC50; read-out: EP3 CHO mtCLY ANTAG IC50.
T1 construct: expressed in transfected cells; host or cells: CHO K1 (Chinese Hamster Ovary), stably co-transfected with Galpha16 and mitochondrial clytin
T1 sequence (P43115 1-390): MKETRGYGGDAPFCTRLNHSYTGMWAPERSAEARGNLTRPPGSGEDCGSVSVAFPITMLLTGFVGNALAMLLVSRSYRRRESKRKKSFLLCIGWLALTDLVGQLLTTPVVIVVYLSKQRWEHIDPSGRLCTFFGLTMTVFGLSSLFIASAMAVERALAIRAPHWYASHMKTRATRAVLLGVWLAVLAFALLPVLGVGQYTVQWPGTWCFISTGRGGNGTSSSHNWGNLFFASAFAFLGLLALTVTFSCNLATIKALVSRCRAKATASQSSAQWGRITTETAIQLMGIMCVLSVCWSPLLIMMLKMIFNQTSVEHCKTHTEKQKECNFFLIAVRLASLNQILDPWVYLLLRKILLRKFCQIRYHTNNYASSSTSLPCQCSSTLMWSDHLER
Format: cell-based
Outline: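 Antagonist activity was measured as inhibition of the luminescent calcium signal elicited by EC50 sulprostone, following 10 min compound pretreatment. The cell line was recombinant CHO K1 co-expressing human EP3, Gα16 and the photoprotein Clytin, reconstituted with coelenterazine.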
`Cc1ccc(-c2cn3nc(C(=O)NCC(O)C(F)(F)F)c(C)c3c(=O)[nH]2)cc1F` (racemic) [6-409] gave an IC50 of 7.12 nM. For `Cc1cccc2ncc(-c3cn4nc(C(=O)NC(CO)c5ccc(Br)cc5)c(C(C)C)c4c(=O)[nH]3)cc12` (stereo not shown) [Example 4-75, N-[1-(4-Bromophenyl)-2-hydroxyethyl]-3-isopropyl-6-(5-methyl-3-quinolyl)-4-oxo-5H-pyrazolo[1,5-a]pyrazine-2-carboxamide], the IC50 was 1.25 nM. In the case of `Cc1ccc(-c2cn3nc(C(=O)NC4(c5ccc(F)cc5)CN(C)C4)c(C4CC4)c3c(=O)[nH]2)cc1C` [Example 1-36, 3-Cyclopropyl-6-(3,4-dimethylphenyl)-N-[3-(4-fluorophenyl)-1-methylazetidin-3-yl]-4-oxo-4,5-dihydropyrazolo[1,5-a]pyrazine-2-carboxamide], the IC50 is reported as 2.19 nM. Compound `Cc1ccc(-c2cn3nc(C(=O)NCCN(C)C4CC4)c(C4CC4)c3c(=O)[nH]2)cc1C` [6-661] has an IC50 of 1.43 nM. `CCn1cnnc1CNC(=O)c1nn2cc(-c3cnc4cccc(C)c4c3)[nH]c(=O)c2c1C(C)C` [Example 4-20, N-[(4-Ethyl-4H-1,2,4-triazol-3-yl)methyl]-6-(5-methylquinolin-3-yl)-4-oxo-3-(propan-2-yl)-4,5-dihydropyrazolo[1,5-a]pyrazine-2-carboxamide] showed an IC50 of 2.9 nM. Compound `Cc1cc(-c2cn3nc(C(=O)NC4CC(F)(F)C4)c(C4CC4)c3c(=O)[nH]2)ccc1Cl` [6-297] has an IC50 of 1.15 nM. For `CC(C)(O)[C@@H](NC(=O)c1nn2cc(-c3ccc4ccccc4c3)[nH]c(=O)c2c1C#N)c1ccc(F)cc1` [6-110], the IC50 was 4 nM. `COc1ccc(C2(NC(=O)c3nn4cc(-c5ccc(Cl)c(C)c5)[nH]c(=O)c4c3C(F)(F)F)CN(C)C2)cc1` [6-213] was tested, and the IC50 was 3.15 nM. `Cc1ccc(-c2cn3nc(C(=O)NC(C)c4ccc(F)cc4)cc3c(=O)[nH]2)cc1C` (stereo not shown) [Example 5-1, 6-(3,4-Dimethylphenyl)-N-[1-(4-fluorophenyl)ethyl]-4-oxo-5H-pyrazolo[1,5-a]pyrazine-2-carboxamide] gave an IC50 of 6.78 nM. In the case of `Cc1c(C(=O)NC(CO)c2ccc(Br)cc2)nn2c(C)c(-c3ccc4ccccc4c3)[nH]c(=O)c12` (stereo not shown) [Example 3-69, N-[1-(4-Bromophenyl)-2-hydroxyethyl]-3,7-dimethyl-6-(2-naphthyl)-4-oxo-5H-pyrazolo[1,5-a]pyrazine-2-carboxamide], the IC50 is reported as 2.5 nM. `COC[C@@H](NC(=O)c1cc2c(=O)[nH]c(-c3ccc4c(c3)OCCO4)cn2n1)c1ccccc1` [6-49] was tested, and the IC50 was 1.6 nM. Compound `C[C@H](NC(=O)c1nn2cc(-c3cc(Cl)c(Cl)cc3F)[nH]c(=O)c2c1C1CC1)C1CC1` [6-581] has an IC50 of 1.6 nM. Compound `C[C@H](NC(=O)c1nn2cc(-c3ccc(Cl)c(F)c3)[nH]c(=O)c2c1C1CCC1)C1CC1` [6-570] has an IC50 of 1.3 nM. `O=C(NCC(O)C(F)(F)F)c1nn2cc(-c3ccc(Cl)c(Cl)c3)[nH]c(=O)c2c1C1CC1` (single isomer, unassigned) [6-417] was tested, and the IC50 was 1.85 nM. With `CC(C)C(NC(=O)c1cc2c(=O)[nH]c(-c3ccc4ccccc4c3)cn2n1)c1cccs1` (stereo not shown) [Example 2-38, N-[2-Methyl-1-(2-thienyl)propyl]-6-(2-naphthyl)-4-oxo-4,5-dihydropyrazolo[1,5-a]pyrazine-2-carboxamide] the IC50 was 2.05 nM. In the case of `Cc1cc(-c2cn3nc(C(=O)NC(C)C4CCC4)c(C(F)(F)F)c3c(=O)[nH]2)ccc1Cl` (racemic) [6-222], the IC50 is reported as 1.11 nM. For `Cc1cccc2ncc(-c3cn4nc(C(=O)NC5CCS(=O)(=O)C5)c(C(C)C)c4c(=O)[nH]3)cc12` (stereo not shown) [Example 4-12, N-(1,1-Dioxothiolan-3-yl)-3-isopropyl-6-(5-methyl-3-quinolyl)-4-oxo-5H-pyrazolo[1,5-a]pyrazine-2-carboxamide], the IC50 was 1.65 nM. Work on `CCn1cc(Cl)c(CNC(=O)c2nn3cc(-c4cnc5cccc(C)c5c4)[nH]c(=O)c3c2C(C)C)n1` [Example 4-23, N-[(4-Chloro-1-ethyl-1H-pyrazol-3-yl)methyl]-6-(5-methylquinolin-3-yl)-4-oxo-3-(propan-2-yl)-4,5-dihydropyrazolo[1,5-a]pyrazine-2-carboxamide] yielded an IC50 of 1.01 nM. For `Cc1cccc2ncc(-c3cn4nc(C(=O)N[C@@H]5CCCc6ccccc65)c(C(C)C)c4c(=O)[nH]3)cc12` [Example 4-5, 6-(5-Methylquinolin-3-yl)-4-oxo-3-(propan-2-yl)-N-[(7R)-1,2,3,4-tetrahydronaphthalen-1-yl]-4,5-dihydropyrazolo[1,5-a]pyrazine-2-carboxamide], the IC50 was 7.7 nM. Work on `Cc1c(C(=O)NC(c2cccc(F)c2)C(F)F)nn2c(C)c(-c3ccc4ccccc4c3)[nH]c(=O)c12` (stereo not shown) [Example 3-72, N-[2,2-Difluoro-1-(3-fluorophenyl)ethyl]-3,7-dimethyl-6-(2-naphthyl)-4-oxo-5H-pyrazolo[1,5-a]pyrazine-2-carboxamide] yielded an IC50 of 2.1 nM. With `Cc1ccc(-c2cn3nc(C(=O)NCCC(O)C(F)(F)F)c(C4CC4)c3c(=O)[nH]2)cc1F` (racemic) [6-366] the IC50 was 2.2 nM. `Cc1ccc(-c2cn3nc(C(=O)NCc4ccccc4)cc3c(=O)[nH]2)cc1C` [6-22] was tested, and the IC50 was 4 nM. Work on `Cc1cc(-c2cn3nc(C(=O)NC4(c5ccc(F)cc5)CN(C)C4)c(C(F)(F)F)c3c(=O)[nH]2)ccc1Cl` [6-207] yielded an IC50 of 4.35 nM. `Cc1cccc2ncc(-c3cn4nc(C(=O)N[C@H](CCO)c5ccc(F)cc5)cc4c(=O)[nH]3)cc12` [Example 1-113, N-[(1R)-1-(4-Fluorophenyl)-3-hydroxypropyl]-6-(5-methylquinolin-3-yl)-4-oxo-4,5-dihydropyrazolo[1,5-a]pyrazine-2-carboxamide] gave an IC50 of 3.8 nM. With `[N-]=[N+]=NC[C@H](NC(=O)c1cc2c(=O)[nH]c(-c3ccc4ccccc4c3)cn2n1)c1ccccc1` [6-59] the IC50 was 4.2 nM.
